Data set [1] has as its system cells. The conditions noted are these: in vitro; cited from earlier work.
Data set [2] concerns cells. Format: cell-based. The text has this:
Another synthetic polymer that has been recently evaluated for its ability to mediate gene transfer is polyethyleneimine (PEI) which contains primary, secondary, and tertiary amines (Abdallah, B.; Hassan, A.; Benoist; Goula, D.; Behr, J. P.; Demeneix, B. A. Human Gene Therapy 1996, 7, 1947; Boussif, O.; Lezoualc'h, F.; Zanta, M. A.; Mergny, M. D., Scherman, D.; Demeneix, B.; Behr, J. P. Proc. Natl. Acad. Sci. USA 1995, 92, 7297). The advantage of PEI over polylysine as a mediator for gene transfer is that it contains a built-in mechanism for endosome escape. The overall protonation of PEI at pH=7 is approximately 20% whereas the overall protonation at pH=5 is approximately 45% (Suh, J.; Paik, H. J.; Hwang, B. K. Bioorg. Chem. 1994, 22, 318). […] In fact, PEI is capable of mediating gene transfer equal to the best lipid systems.

Results on two molecules are retold here after patent US6849272B1, “Endosomolytic agents and cell delivery systems” (Massachusetts Institute of Technology, priority 1999, dated 2005).

As to `OCC(O)CO` [glycerol], the “concentration required to enhance transfection” value in data set [1] is 1-1.5 M.
Regarding polyethyleneimine [PEI], in data set [2], the “toxicity to cells in vitro” value was “toxic to cells in vitro”.
